Experimental data reported in ChEMBL document CHEMBL4699607, “Design, synthesis, and computational validation of novel compounds selectively targeting HER2-expressing breast cancer” (Bioorg Med Chem Lett, 2020).
pIC50: −log10 of the molar value. The source made the active and inactive calls. The calls are words filed in the database; no cut-off is given here.

Tests used:
MDA-MB-231 = test: Cytotoxicity against human MDA-MB-231 cells assessed as reduction in cell viability at 10 uM by SRB assay; type: functional, cell-based
[1] = biological target: Receptor tyrosine-protein kinase erbB-2 (Homo sapiens) (UniProt P04626); test: Inhibition of HER2 (unknown origin) at 10 uM by ELISA
MCF7 [2] = test: Cytotoxicity against human MCF-7 assessed as reduction in cell viability by SRB assay
SK-BR-3 [3] = test: Cytotoxicity against human SKBr3 assessed as reduction in cell viability by SRB assay
MCF7 [4] = test: Cytotoxicity against human MCF-7 assessed as reduction cell viability at 10 uM by SRB assay; type: functional
SK-BR-3 [5] = test: Cytotoxicity against human SKBr3 assessed as reduction cell viability at 10 uM by SRB assay; type: functional

Sequence of Receptor tyrosine-protein kinase erbB-2 (Homo sapiens) (P04626 whole entry): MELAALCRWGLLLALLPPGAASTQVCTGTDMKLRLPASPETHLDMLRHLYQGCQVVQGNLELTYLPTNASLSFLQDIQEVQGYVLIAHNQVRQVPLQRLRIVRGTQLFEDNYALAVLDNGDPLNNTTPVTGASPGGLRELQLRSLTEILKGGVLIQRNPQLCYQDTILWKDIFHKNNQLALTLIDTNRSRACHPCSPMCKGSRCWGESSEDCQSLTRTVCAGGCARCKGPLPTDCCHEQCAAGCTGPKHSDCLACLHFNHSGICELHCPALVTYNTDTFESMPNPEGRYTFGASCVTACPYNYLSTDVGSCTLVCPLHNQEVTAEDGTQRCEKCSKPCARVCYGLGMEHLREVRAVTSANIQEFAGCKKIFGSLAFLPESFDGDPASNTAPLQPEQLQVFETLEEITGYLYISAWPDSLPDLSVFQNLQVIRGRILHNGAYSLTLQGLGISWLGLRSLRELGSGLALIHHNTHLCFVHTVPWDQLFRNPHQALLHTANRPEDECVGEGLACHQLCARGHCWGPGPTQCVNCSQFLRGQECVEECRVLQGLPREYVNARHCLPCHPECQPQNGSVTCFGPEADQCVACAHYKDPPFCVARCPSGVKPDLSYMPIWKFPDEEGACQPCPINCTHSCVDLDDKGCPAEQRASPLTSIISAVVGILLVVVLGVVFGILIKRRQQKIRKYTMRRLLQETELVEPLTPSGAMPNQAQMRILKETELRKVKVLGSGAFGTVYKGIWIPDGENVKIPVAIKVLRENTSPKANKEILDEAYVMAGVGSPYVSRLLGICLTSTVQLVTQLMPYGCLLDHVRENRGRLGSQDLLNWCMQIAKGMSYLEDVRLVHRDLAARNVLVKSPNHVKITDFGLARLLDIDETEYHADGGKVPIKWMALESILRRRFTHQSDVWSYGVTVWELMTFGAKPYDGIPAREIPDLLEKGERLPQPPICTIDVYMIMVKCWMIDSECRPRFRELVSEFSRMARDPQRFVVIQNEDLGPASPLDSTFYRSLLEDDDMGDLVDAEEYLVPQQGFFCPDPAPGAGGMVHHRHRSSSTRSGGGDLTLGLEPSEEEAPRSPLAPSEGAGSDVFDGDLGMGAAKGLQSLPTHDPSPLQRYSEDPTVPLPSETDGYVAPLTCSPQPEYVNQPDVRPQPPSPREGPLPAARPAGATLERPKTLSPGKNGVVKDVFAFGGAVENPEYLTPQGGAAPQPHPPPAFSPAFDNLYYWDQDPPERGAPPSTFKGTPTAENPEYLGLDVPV

Row | SMILES | inhibition [1] [%] | inhibition (MDA-MB-231) | pIC50 (MCF7 [2]) | pIC50 (SK-BR-3 [3]) | inhibition at 10 µM (MCF7 [4]) [%] | inhibition at 10 µM (SK-BR-3 [5]) [%]
1 | S=C(Nc1ccc(Cl)cc1Cl)Nc1ncccc1Br | 87 | inactive | 5.89 | 6.14 | 72.4 | 79.7
2 | Cc1ccc(S(=O)(=O)NC(=O)Nc2ncccc2Br)cc1 |  | inactive |  |  | 11.2 | 
3 | COc1ccccc1CNC(=O)NS(=O)(=O)c1ccccc1 |  | inactive |  |  | 10.3 | 

Second part, led by results:

Row | inhibition [1] [%] | SMILES | inhibition (MDA-MB-231) | pIC50 (MCF7 [2]) | pIC50 (SK-BR-3 [3]) | inhibition at 10 µM (MCF7 [4]) [%] | inhibition at 10 µM (SK-BR-3 [5]) [%]
4 | 84.7 | S=C(NCCc1ccccc1)Nc1ncccc1Br | inactive | 4.79 | 5.95 | 63 | 78.8
5 | 82.6 | S=C(Nc1ccc(Cl)cc1Br)Nc1ncccc1Br | inactive | 5.60 | 5.47 | 64.1 | 74.8
